Experimental data from patent US20230128969A1, “POLYURETHANE FOAM COMPOSITIONS WITH ANTIMICROBIAL PROPERTIES” (SANITIZED AG, priority 2020, published 2023).
Several values for one entry are separate records, joined by “and”; a condition that tells them apart may be missing. Equal entries are not always repeated. Where two headings read alike, the source gives them in different places.

What was measured:
[1] = test system: Aspergillus niger-ATCC 9642, Penicillium funiculosum-ATCC 11797, Chaetomium globosum-ATCC 6205, Trichoderma virens-ATCC 9645, Aureobasidium pullulans-ATCC …; experiment: ASTM G21 strengthened (fungal growth on specimen, 28 days); assay type: cell-based, mold fungi (composite spore suspension); details: for ASTM G21: 0.5 pbw (B) with 0.25 pbw (C) C8-C18-alkyldimethylbenzyl ammonium chloride; for ASTM G21 strengthened rating: rigid foam A4
[2] = test system: Aspergillus niger-ATCC 6275, Penicillium funiculosum-ATCC 36839, Chaetomium globosum-ATCC 6205, Trichoderma virens ATCC 9645, Paecilomyces varioti-ATCC 18502; experiment: EN ISO 846 A test method (PUD coatings, 28 days); assay type: cell-based, fungi (composite spore suspension); design: key: 0: No fungal growth, excellent resistance; 1: fungi visible with the microscope, sufficient resistance; 2-5: fungi visible to the naked eye, insufficient resistance; details: polyurethane coating A5
[3] = test system: Escherichia coli ATCC 8739; experiment: JIS Z 2801 test method (PUD coatings, 24 hours); assay type: cell-based; details: polyurethane coating A5
[4] = test system: Penicillium funiculosum-ATCC 36839; experiment: Agar diffusion test SAN BIO 12/94; assay type: cell-based; details: polyurethane coating A5
[5] = test system: Escherichia coli ATCC 11229; experiment: JIS L 1902 test method (memory foam, 18 hours); assay type: cell-based; details: memory foam A2
[6] = memory foam A2, 0.5 pbw (B), 0 pbw (C)
[7] = memory foam A2, 0.5 pbw (C), 0 pbw (B)
[8] = memory foam A2, 1 pbw (C), 0 pbw (B)
[9] = memory foam A1, 0.2 pbw (B) with 0.5 pbw (C) dimethyltetradecyl(3-(trimethoxysilyl)propyl)ammonium chloride, (E) Diglyme 0.8 pbw
[10] = memory foam A2, 0.125 pbw (C), 0 pbw (B)
[11] = memory foam A2, 0.25 pbw (C), 0 pbw (B)
[12] = 0.5 pbw (C) with 0.25 pbw (B) tetrasodium EDTA salt
[13] = 0.5 pbw (C) with 0.5 pbw (B) tetrasodium EDTA salt
[14] = memory foam A2, 2 pbw (C), 0 pbw (B)

O=C(O)CN(CCO)CCN(CC(=O)O)CC(=O)O [N-(2-Hydroxyethyl)-ethylenediamine-N,N′,N′-triacetic acid]
ASTM G21 ([1]; memory foam A2): 2 (10 to 30% of the surface is covered with mold fungi) | G21 (ASTM G21 strengthened rating) [1, 6]: 3 (30 to 60% of the surface is covered with mold fungi)

O=C([O-])CN(CCN(CC(=O)[O-])CC(=O)[O-])CC(=O)[O-].[Na+].[Na+].[Na+].[Na+] [tetrasodium EDTA salt, EDTA, tetrasodium]
G21 (ASTM G21 strengthened rating) [1]: 0 | antimicrobial efficiency / protection (in words) [1]: very good antimicrobial efficiency | EN ISO 846 A rating ([2]; 0.25 pbw (B), 0 pbw (C)): 5 | EN ISO 846 A rating ([2]; 0.5 pbw (B), 0 pbw (C)): 5 | EN ISO 846 A rating ([2]; 1 pbw (B), 0 pbw (C)): 5 | Bacterial Activity R, logarithmic reduction (log R activity), JIS Z 2801 ([3]; 0.25 pbw (B), 0 pbw (C)): 0.90 log R | Bacterial Activity R, logarithmic reduction (log R activity), JIS Z 2801 ([3]; 0.5 pbw (B), 0 pbw (C)): 3.20 log R

CCCCCCCCCCCCN(CCCN)CCCN [laurylamine dipropylenediamine]
G21 (ASTM G21 strengthened rating) [1, 7]: 4 (at least 60% of the surface is covered with mold fungi) | G21 (ASTM G21 strengthened rating) [1, 8]: 4 (at least 60% of the surface is covered with mold fungi)

O=C(O)CC(O)(CC(=O)O)C(=O)O [Citric acid]
G21 (ASTM G21 strengthened rating) [1, 9]: 4 (at least 60% of the surface is covered with mold fungi)

CCCCCCCCCCC(=O)O [Undecanoic acid]
G21 (ASTM G21 strengthened rating) ([1]; memory foam A1, 0.5 pbw (B) with 0.5 pbw (C) dimethyltetradecyl(3-(trimethoxysilyl)propyl)ammonium chloride, (E) Arcol Polyol 1108 0.5 pbw): 4 (at least 60% of the surface is covered with mold fungi)

CCCCCCCCCCCCCC[N+](C)(C)CCC[Si](OC)(OC)OC.[Cl-] [dimethyltetradecyl(3-(trimethoxysilyl)propyl)ammonium chloride]
G21 (ASTM G21 strengthened rating) ([1]; memory foam A1, 0.5 pbw (C), no (B), (E) Arcol Polyol 1108 1 pbw): 4 (at least 60% of the surface is covered with mold fungi) | G21 (ASTM G21 strengthened rating) ([1]; memory foam A1, 0.5 pbw (C), no (B), (E) Diglyme 1 pbw): 4 (at least 60% of the surface is covered with mold fungi) | G21 (ASTM G21 strengthened rating) ([1]; memory foam A1, 0.5 pbw (C), no (B), (E) Triacetin 1 pbw): 4 (at least 60% of the surface is covered with mold fungi) | G21 (ASTM G21 strengthened rating) ([1]; memory foam A1, 0.5 pbw (C), no (B), no (E)): 3 (30 to 60% of the surface is covered with mold fungi) | G21 (ASTM G21 strengthened rating) [1, 10]: 4 (at least 60% of the surface is covered with mold fungi) | G21 (ASTM G21 strengthened rating) [1, 11]: 3 (30 to 60% of the surface is covered with mold fungi) | G21 (ASTM G21 strengthened rating) [1, 7]: 0 | EN ISO 846 A rating [2, 12]: 3 | EN ISO 846 A rating [2, 13]: 1 | EN ISO 846 A rating ([2]; 0.5 pbw (C) with 1 pbw (B) tetrasodium EDTA salt): 0 | EN ISO 846 A rating ([2]; 0.5 pbw (C), 0 pbw (B)): 5 | SAN BIO 12-94 fungal growth ([4]; 0.5 pbw (C), 0 pbw (B)): Full (f) (insufficient protection, sample is covered with fungi) | logarithmic reduction of bacterial growth (log R), JIS L 1902 ([5]; 1 pbw (C), 0 pbw (B)): 2.7 log R | bacterial growth (in words) ([5]; combination of (C) with (B) disodium EDTA dihydrate): absence of bacterial growth | Bacterial Activity R, logarithmic reduction (log R activity), JIS Z 2801 ([3]; 0.125 pbw (C) with 0.25 pbw (B) tetrasodium EDTA salt): 2.80 log R | Bacterial Activity R, logarithmic reduction (log R activity), JIS Z 2801 ([3]; 0.125 pbw (C) with 0.5 pbw (B) tetrasodium EDTA salt): >5.10 log R | Bacterial Activity R, logarithmic reduction (log R activity), JIS Z 2801 ([3]; 0.125 pbw (C), 0 pbw (B)): 0.10 log R | Bacterial Activity R, logarithmic reduction (log R activity), JIS Z 2801 [3, 12]: 2.90 log R | Bacterial Activity R, logarithmic reduction (log R activity), JIS Z 2801 [3, 13]: >5.10 log R | Bacterial Activity R, logarithmic reduction (log R activity), JIS Z 2801 ([3]; 0.5 pbw (C), 0 pbw (B)): 0.50 log R

C8-C18-alkyldimethylbenzyl ammonium chloride
G21 (ASTM G21 strengthened rating) [1, 11]: 3 (30 to 60% of the surface is covered with mold fungi) and 2 (10 to 30% of the surface is covered with mold fungi) | G21 (ASTM G21 strengthened rating) [1, 7]: 4 (at least 60% of the surface is covered with mold fungi) | G21 (ASTM G21 strengthened rating) [1, 8]: 4 (at least 60% of the surface is covered with mold fungi) | G21 (ASTM G21 strengthened rating) [1, 14]: 0 | ASTM G21 strengthened rating ([1]; 0.25 pbw (C), 0 pbw (B)): 3 (30 to 60% of the surface is covered with mold fungi)

O=C(O)CN(CC(=O)O)CC(=O)O [Nitrilotriacetic acid]
G21 (ASTM G21 strengthened rating) [1, 9]: 4 (at least 60% of the surface is covered with mold fungi)

CCCCCCCCCC[N+](C)(C)CCCCCCCCCC.[Cl-] [didecyldimethyl ammonium chloride]
G21 (ASTM G21 strengthened rating) [1]: 0

CCCCCCCCCCCCCCCCCC[N+](C)(C)CCC[Si](OC)(OC)OC.[Cl-] [dimethyloctadecyl(3-(trimethoxysilyl)propyl)ammonium chloride]
G21 (ASTM G21 strengthened rating) [1, 10]: 4 (at least 60% of the surface is covered with mold fungi) | G21 (ASTM G21 strengthened rating) [1, 11]: 3 (30 to 60% of the surface is covered with mold fungi)

CCCCCCCCCCCCCC[N+](C)(C)C.[Cl-] [myristyltrimethylammonium chloride]
G21 (ASTM G21 strengthened rating) [1, 7]: 2 (10 to 30% of the surface is covered with mold fungi) | G21 (ASTM G21 strengthened rating) [1, 8]: 0 | G21 (ASTM G21 strengthened rating) [1, 14]: 0

O.O.O=C([O-])CN(CCN(CC(=O)O)CC(=O)O)CC(=O)[O-].[Na+].[Na+] [disodium EDTA dihydrate, Disodium EDTA dihydrate]
G21 (ASTM G21 strengthened rating) [1, 9]: 0 | antimicrobial efficiency / protection (in words) ([1]; memory foam A1, (B) combined with (C) dimethyltetradecyl(3-(trimethoxysilyl)propyl)ammonium chloride, ASTM G21 strengthened): very good antimicrobial efficiency | G21 (ASTM G21 strengthened rating) ([1]; memory foam A2, 0.25 pbw (B), 0 pbw (C)): 3 (30 to 60% of the surface is covered with mold fungi) | ASTM G21 ([1]; memory foam A2): 0 | G21 (ASTM G21 strengthened rating) [1, 6]: 3 (30 to 60% of the surface is covered with mold fungi) | G21 (ASTM G21 strengthened rating) ([1]; memory foam A2, 1 pbw (B), 0 pbw (C)): 3 (30 to 60% of the surface is covered with mold fungi) | ASTM G21 strengthened rating ([1]; 0.5 pbw (B), 0 pbw (C)): 4 (at least 60% of the surface is covered with mold fungi) | SAN BIO 12-94 fungal growth ([4]; 0.25 pbw (B), 0 pbw (C)): Full (f) (insufficient protection, sample is covered with fungi) | SAN BIO 12-94 fungal growth ([4]; 0.5 pbw (B), 0 pbw (C)): Full (f) (insufficient protection, sample is covered with fungi) | SAN BIO 12-94 fungal growth ([4]; 1 pbw (B), 0 pbw (C)): Full (f) (insufficient protection, sample is covered with fungi) | logarithmic reduction of bacterial growth (log R), JIS L 1902 ([5]; 0.25 pbw (B), 0 pbw (C)): 3.1 log R
